Tests used:
[1] = Electrometric titration (pKa); type: physicochemical; settings: electrometric titration in 66% dimethylformamide in water; stated as possible
Description: Antibiotic A41030 factor A is a white, crystalline solid.

[2] = Solubility in solvents; type: physicochemical; settings: qualitative
Description: As many as seven antibiotic factors are recovered from the fermentation and are obtained as a mixture, the A41030 complex. It will be recognized that the ratio of the factors in the A41030 complex will vary, depending upon the fermentation conditions used. The individual factors A, B, C, D, E, F, and G are separated and isolated as individual compounds, as hereinafter described.

[3] = tested on: Clostridium difficile; assay: MIC anaerobic bacteria, agar-dilution; type: cell-based; settings: Clostridium difficile 2994; agar-dilution (Table 9)
[4] = tested on: Clostridium perfringens; type: cell-based; settings: Clostridium perfringens 81; agar-dilution
[5] = tested on: Clostridium septicum; assay: MIC anaerobic bacteria, agar-dilution; type: cell-based; settings: Clostridium septicum 1128
[6] = tested on: Eubacterium aerofaciens; assay: MIC anaerobic bacteria, agar-dilution; type: cell-based; settings: Eubacterium aerofaciens 1235
[7] = tested on: Peptococcus asaccharolyticus; assay: MIC anaerobic bacteria, agar-dilution; type: cell-based; settings: Peptococcus asaccharolyticus 1302
[8] = tested on: Peptococcus prevoti; assay: MIC anaerobic bacteria, agar-dilution; type: cell-based; settings: Peptococcus prevoti 1281
[9] = tested on: Peptostreptococcus anaerobius; assay: MIC anaerobic bacteria, agar-dilution; type: cell-based; settings: Peptostreptococcus anaerobius 1428
[10] = tested on: Peptostreptococcus intermedius; assay: MIC anaerobic bacteria, agar-dilution; type: cell-based; settings: Peptostreptococcus intermedius 1264
[11] = tested on: Propionibacterium acnes; assay: MIC anaerobic bacteria, agar-dilution; type: cell-based; settings: Propionibacterium acnes 79; agar-dilution (Table 9)
[12] = tested on: Bacteroides fragilis; assay: MIC anaerobic bacteria, agar-dilution; type: cell-based
[13] = tested on: Bacteroides thetaiotaomicron; assay: MIC anaerobic bacteria, agar-dilution; type: cell-based; settings: Bacteroides thetaiotaomicron 1438
[14] = tested on: Bacteroides melaninogenicus; assay: MIC anaerobic bacteria, agar-dilution; type: cell-based; settings: Bacteroides melaninogenicus 2736
[15] = tested on: Bacteroides vulgatis; assay: MIC anaerobic bacteria, agar-dilution; type: cell-based; settings: Bacteroides vulgatis 1211
[16] = tested on: Bacteroides corrodens; assay: MIC anaerobic bacteria, agar-dilution; type: cell-based; settings: Bacteroides corrodens 1874
[17] = tested on: Fusobacterium symbiosum; assay: MIC anaerobic bacteria, agar-dilution; type: cell-based; settings: Fusobacterium symbiosum 1470
[18] = tested on: Fusobacterium necrophorum; assay: MIC anaerobic bacteria, agar-dilution; type: cell-based; settings: Fusobacterium necrophorum 6054A
[19] = tested on: Clostridium difficile; assay: MIC against Clostridium difficile strains, agar-dilution; type: cell-based
Description: The A41030 antibiotic factors A, B, C, D, E, F, and G, are also active against a number of strains of Clostridium difficile, as determined by the agardilution method.

[20] = tested on: Staphylococcus aureus; assay: MIC aerobic bacteria, standard agar-dilution assay; type: cell-based; settings: Staphylococcus aureus S13E; agar-dilution, 24 hours
[21] = tested on: Staphylococcus epidermidis; assay: MIC aerobic bacteria, standard agar-dilution assay; type: cell-based; settings: Staphylococcus epidermidis EPI1, 24 hours
[22] = tested on: Streptococcus pyogenes; assay: MIC aerobic bacteria, standard agar-dilution assay; type: cell-based; settings: Streptococcus pyogenes C203, 24 hours
[23] = tested on: Streptococcus pneumoniae; assay: MIC aerobic bacteria, standard agar-dilution assay; type: cell-based; settings: Streptococcus pneumoniae Park I, 24 hours
[24] = tested on: Streptococcus sp. Group D; assay: MIC aerobic bacteria, standard agar-dilution assay; type: cell-based
[25] = tested on: Haemophilus influenzae; assay: MIC aerobic bacteria, standard agar-dilution assay; type: cell-based
[26] = Streptococcus sp. Group D 9960, 24 hours
[27] = Streptococcus sp. Group D X66, 24 hours
[28] = Haemophilus influenzae 76, 24 hours
[29] = Haemophilus influenzae C.L., 24 hours

Question: Which “possibly additional pKa's” value [1] does the source give for A41030 factor E here?
Answer: Its value is > 10.

Question: What about the “solubility (solvents)” value [2] of the same substance?
Answer: Its value is “soluble in the same solvents as factor A”.

Question: And the MIC [3]?
Answer: Its MIC is 0.5 µg/mL.

Question: And the MIC [4]?
Answer: Its MIC is 1.0 µg/mL.

Question: What about the MIC [5] of the same substance?
Answer: The MIC was 0.5 µg/mL.

Question: And the MIC [6]?
Answer: The MIC was 0.5 µg/mL.

Question: What about the MIC [7] of the same substance?
Answer: Its MIC is ≤ 0.25 µg/mL.

Question: What about the MIC [8] of the same substance?
Answer: The MIC was 32 µg/mL.

Question: What about the MIC [9] of the same substance?
Answer: Its MIC is 32 µg/mL.

Question: And the MIC [10]?
Answer: The MIC was 32 µg/mL.

Question: What about the MIC [11] of the same substance?
Answer: Its MIC is 0.5 µg/mL.

Question: What about the MIC ([12]; Bacteroides fragilis 111) of the same substance?
Answer: The MIC was 64 µg/mL.

Question: And the MIC ([12]; Bacteroides fragilis 1877)?
Answer: The MIC was 32 µg/mL.

Question: What about the MIC ([12]; Bacteroides fragilis 1936B) of the same substance?
Answer: Its MIC is 64 µg/mL.

Question: And the MIC [13]?
Answer: Its MIC is 64 µg/mL.

Question: What about the MIC [14] of the same substance?
Answer: The MIC was 32 µg/mL.

Question: And the MIC [15]?
Answer: Its MIC is 32 µg/mL.

Question: And the MIC [16]?
Answer: Its MIC is 64 µg/mL.

Question: What about the MIC [17] of the same substance?
Answer: Its MIC is 1.0 µg/mL.

Question: What about the MIC [18] of the same substance?
Answer: The MIC was 0.5 µg/mL.

Question: And the MIC ([19]; Clostridium difficile 78)?
Answer: Its MIC is 0.5 µg/mL.

Question: What about the MIC ([19]; Clostridium difficile 107B) of the same substance?
Answer: Its MIC is 0.5 µg/mL.

Question: What about the MIC ([19]; Clostridium difficile 111F) of the same substance?
Answer: The MIC was 0.5 µg/mL.

Question: What about the MIC ([19]; Clostridium difficile 1153) of the same substance?
Answer: The MIC was 1.0 µg/mL.

Question: What about the MIC ([19]; Clostridium difficile 2634) of the same substance?
Answer: The MIC was 1.0 µg/mL.

Question: And the MIC ([19]; Clostridium difficile 3424-5B)?
Answer: Its MIC is 0.5 µg/mL.

Question: And the MIC ([19]; Clostridium difficile 3816)?
Answer: Its MIC is 0.5 µg/mL.

Question: What about the MIC ([19]; Clostridium difficile 3950D) of the same substance?
Answer: The MIC was 0.5 µg/mL.

Question: And the MIC ([19]; Clostridium difficile 6890)?
Answer: Its MIC is 0.5 µg/mL.

Question: What about the MIC ([19]; Clostridium difficile 8484) of the same substance?
Answer: Its MIC is 0.5 µg/mL.

Question: What about the MIC ([19]; Clostridium difficile A-194) of the same substance?
Answer: Its MIC is 0.5 µg/mL.

Question: What about the MIC ([19]; Clostridium difficile A-195) of the same substance?
Answer: The MIC was 0.5 µg/mL.

Question: And the MIC ([19]; Clostridium difficile A-196)?
Answer: Its MIC is 1.0 µg/mL.

Question: And the MIC ([19]; Clostridium difficile A-279)?
Answer: The MIC was 0.5 µg/mL.

Question: What about the MIC ([19]; Clostridium difficile A-280) of the same substance?
Answer: Its MIC is 0.5 µg/mL.

Question: What about the MIC ([19]; Clostridium difficile A-281) of the same substance?
Answer: The MIC was 1.0 µg/mL.

Question: What about the MIC ([19]; Clostridium difficile WAL-2112) of the same substance?
Answer: The MIC was 0.5 µg/mL.

Question: What about the MIC ([19]; Clostridium difficile WAL-3657) of the same substance?
Answer: Its MIC is 0.5 µg/mL.

Question: And the MIC ([19]; Clostridium difficile WAL-4268)?
Answer: Its MIC is 0.5 µg/mL.

Question: And the MIC [20]?
Answer: Its MIC is 0.25 µg/mL.

Question: And the MIC [21]?
Answer: The MIC was 0.25 µg/mL.

Question: And the MIC [22]?
Answer: The MIC was 0.25 µg/mL.

Question: And the MIC [23]?
Answer: The MIC was 0.25 µg/mL.

Question: And the MIC [24, 26]?
Answer: The MIC was 1 µg/mL.

Question: And the MIC [24, 27]?
Answer: The MIC was 1 µg/mL.

Question: And the MIC [25, 28]?
Answer: The MIC was 8 µg/mL.

Question: What about the MIC [25, 29] of the same substance?
Answer: The MIC was 8 µg/mL.

Question: With A41030 factor F as the substance, how does the “possibly additional pKa's” value [1] read?
Answer: The value was > 10.

Question: And the “solubility (solvents)” value [2]?
Answer: The value was “soluble in the same solvents as factor A”.

Question: And the MIC [3]?
Answer: The MIC was 1.0 µg/mL.

Question: What about the MIC [4] of the same substance?
Answer: Its MIC is 1.0 µg/mL.

Question: What about the MIC [5] of the same substance?
Answer: Its MIC is 1.0 µg/mL.

Question: And the MIC [6]?
Answer: The MIC was 1.0 µg/mL.

Question: What about the MIC [7] of the same substance?
Answer: Its MIC is ≤ 0.25 µg/mL.

Question: And the MIC [8]?
Answer: Its MIC is 32 µg/mL.

Question: And the MIC [9]?
Answer: The MIC was 32 µg/mL.

Question: What about the MIC [10] of the same substance?
Answer: Its MIC is 1.0 µg/mL.

Question: What about the MIC [11] of the same substance?
Answer: The MIC was 1.0 µg/mL.

Question: And the MIC ([12]; Bacteroides fragilis 111)?
Answer: Its MIC is 32 µg/mL.

Question: And the MIC ([12]; Bacteroides fragilis 1877)?
Answer: The MIC was 32 µg/mL.

Question: What about the MIC ([12]; Bacteroides fragilis 1936B) of the same substance?
Answer: The MIC was 32 µg/mL.

Question: And the MIC [13]?
Answer: Its MIC is 64 µg/mL.

Question: And the MIC [14]?
Answer: Its MIC is 1.0 µg/mL.

Question: And the MIC [15]?
Answer: The MIC was 32 µg/mL.

Question: And the MIC [16]?
Answer: Its MIC is 32 µg/mL.

Question: And the MIC [17]?
Answer: The MIC was 1.0 µg/mL.

Question: What about the MIC [18] of the same substance?
Answer: Its MIC is 1.0 µg/mL.

Question: And the MIC ([19]; Clostridium difficile 78)?
Answer: The MIC was 1.0 µg/mL.

Question: What about the MIC ([19]; Clostridium difficile 107B) of the same substance?
Answer: Its MIC is 1.0 µg/mL.

Question: And the MIC ([19]; Clostridium difficile 111F)?
Answer: The MIC was 2 µg/mL.

Question: What about the MIC ([19]; Clostridium difficile 1153) of the same substance?
Answer: The MIC was 2 µg/mL.

Question: And the MIC ([19]; Clostridium difficile 2634)?
Answer: Its MIC is 2 µg/mL.

Question: What about the MIC ([19]; Clostridium difficile 3424-5B) of the same substance?
Answer: The MIC was 1.0 µg/mL.

Question: And the MIC ([19]; Clostridium difficile 3816)?
Answer: Its MIC is 1.0 µg/mL.

Question: What about the MIC ([19]; Clostridium difficile 3950D) of the same substance?
Answer: The MIC was 1.0 µg/mL.

Question: And the MIC ([19]; Clostridium difficile 6890)?
Answer: The MIC was 1.0 µg/mL.

Question: And the MIC ([19]; Clostridium difficile 8484)?
Answer: The MIC was 1.0 µg/mL.

Question: And the MIC ([19]; Clostridium difficile A-194)?
Answer: The MIC was 1.0 µg/mL.

Question: What about the MIC ([19]; Clostridium difficile A-195) of the same substance?
Answer: Its MIC is 1.0 µg/mL.

Question: What about the MIC ([19]; Clostridium difficile A-196) of the same substance?
Answer: The MIC was 2 µg/mL.

Question: What about the MIC ([19]; Clostridium difficile A-279) of the same substance?
Answer: Its MIC is 1.0 µg/mL.

Question: What about the MIC ([19]; Clostridium difficile A-280) of the same substance?
Answer: The MIC was 1.0 µg/mL.

Question: And the MIC ([19]; Clostridium difficile A-281)?
Answer: The MIC was 2 µg/mL.

Question: And the MIC ([19]; Clostridium difficile WAL-2112)?
Answer: Its MIC is 1.0 µg/mL.

Question: What about the MIC ([19]; Clostridium difficile WAL-3657) of the same substance?
Answer: Its MIC is 1.0 µg/mL.

Question: What about the MIC ([19]; Clostridium difficile WAL-4268) of the same substance?
Answer: The MIC was 1.0 µg/mL.

Question: And the MIC [20]?
Answer: Its MIC is 1 µg/mL.

Question: And the MIC [21]?
Answer: The MIC was 0.25 µg/mL.

Question: What about the MIC [22] of the same substance?
Answer: Its MIC is 2 µg/mL.

Question: And the MIC [23]?
Answer: Its MIC is 2 µg/mL.

Question: What about the MIC [24, 26] of the same substance?
Answer: Its MIC is 4 µg/mL.

Question: What about the MIC [24, 27] of the same substance?
Answer: Its MIC is 4 µg/mL.

Question: And the MIC [25, 28]?
Answer: The MIC was 32 µg/mL.

Question: And the MIC [25, 29]?
Answer: The MIC was 32 µg/mL.

Source: patent US4695545A, “Culture and process for producing A41030 antibiotics” (Eli Lilly and Company, priority 1984, dated 1987)
